Measured values: US20150225404A1, “PYRIDINE DERIVATIVE AND MEDICINE” (NIPPON SHINYAKU CO., LTD., priority 2012, published 2015)
Counter-ions that a name gives are not always drawn. Like-named read-outs stand apart in the source and are kept apart here.

Tests used:
male Slc:ICR mice [1] = assay: Action against formalin-induced pain behavior in mice; format: in vivo; conditions: Mus musculus, iv, 0.1 h, test substance 1 mg/kg intravenously, 6 minutes observation, read-out: Percent inhibition of pain-related behavior time (%)
Experimental: 4 to 6-week-old male Slc:ICR mice (available from Japan SLC, Inc.) were used. A medium or a test substance (1 mg/kg or 3 mg/kg) was intravenously administered to each mouse, and immediately thereafter, 20 μL of 1% or 5% formalin was subcutaneously administered to a right hind paw of the mouse. Thereafter, the mice were quickly put into an observation cage and measured for the total time (sec) of pain-related behavior (licking or biting behavior against the right hindlimb) during 6 minutes, and an average value of the pain-related behavior time of each group was calculated.
The intensity of an analgesic action of the test substance was evaluated in terms of percent inhibition (%) of pain-related behavior time which is calculated as {(A−B)/A×100}, wherein A is an average value of the pain-related behavior time of a medium-administered group, and B is an average value of the pain-related behavior time of a test substance-administered group.

male Slc:ICR mice [2] = assay: Action against pain-related behavior and micturition cycle in mice with cyclophosphamide (CP)-induced acute cystitis; format: in vivo; conditions: Mus musculus, iv, 0.25 h, CP 300 mg/kg i.p., 15 minutes observation; for inhibition in vivo at 1 mg/kg: test substance 1 mg/kg intravenously 3 hours after CP; for inhibition in vivo at 3 mg/kg: test substance 3 mg/kg intravenously 3 hours after CP
Experimental: An action of a test substance against visceral pain and frequent urination associated with cystitis, which was induced by intraperitoneal administration (20 mL/kg) of CP (300 mg/kg) to 4 to 5-week-old male Slc:ICR mice (available from Japan SLC, Inc.), was investigated. This experiment was performed according to a method described in European Journal of Pharmacology, 676 (2012), pp. 75-80.
Three hours after the administration of CP, a test substance (1 mg/kg or 3 mg/kg) was intravenously administered, and observation by visual inspection and video recording were performed for 15 minutes immediately thereafter. In the observation by visual inspection, four pain-related behaviors (eye opening, rounded back, leg dragging, and behavior during urination) were scored, each rated on a scale of 0-10, according to the following criteria.
Eye opening (normal: 0 point, sometimes closed or half-open eyes: 5 points, completely closed: 10 points)
Rounded back (normal: 0 point, sometimes crouched: 5 points, crouched at almost all times: 10 points)
Leg dragging (normal: 0 point, leg dragging: 10 points)
Behavior during urination (normal: 0 point, shaking hip in micturition: 10 points)
In addition, the video was played back, and the frequency of licking behavior around the abdomen as a pain-related behavior was scored, rated on a scale of 0-10, according to the following criteria.
Licking behavior around the abdomen (0 to 3 times: 0 point, 4 times to 10 times: 5 points, 11 times or more: 10 points)
Furthermore, the video was played back, and the frequency of urination (urination marks) on a filter paper was counted and taken as an index for micturition cycle.
An average value of the pain-related behavior score of each group (total score of the five items: 50 points at maximum) and an average value of the frequency of urination (urination marks) on the filter paper were determined.
The strength of an analgesic action of the test substance against the CP-induced visceral pain was evaluated in terms of percent inhibition (%) of pain-related behavior score which is calculated as {(A−B)/A×100}, wherein A is an average value of the pain-related behavior score of a medium-administered group, and B is an average value of the pain-related behavior score of a test substance-administered group.
In addition, the strength of a frequent urination inhibitory action of the test substance against the CP-induced frequent urination was evaluated in terms of percent inhibition (%) of the frequency of urination which is calculated as {(C−D)/C×100}, wherein C is an average value of the frequency of urination of a medium-administered group, and D is an average value of the frequency of urination of a test substance-administered group.

human mGluR5 = biological target: T1, human mGluR5 (Homo sapiens, UniProt P41594); assay: Experiment for receptor function of mGluR5 (Ca2+-dependent fluorescence, FLIPR, CHO-K1 cells stably expressing human mGluR5); format: cell-based; conditions: L-glutamic acid 10 μM, Fluo-4 fluorescence
T1 construct: expressed in transfected cells
T1 sequence (P41594 21-1212): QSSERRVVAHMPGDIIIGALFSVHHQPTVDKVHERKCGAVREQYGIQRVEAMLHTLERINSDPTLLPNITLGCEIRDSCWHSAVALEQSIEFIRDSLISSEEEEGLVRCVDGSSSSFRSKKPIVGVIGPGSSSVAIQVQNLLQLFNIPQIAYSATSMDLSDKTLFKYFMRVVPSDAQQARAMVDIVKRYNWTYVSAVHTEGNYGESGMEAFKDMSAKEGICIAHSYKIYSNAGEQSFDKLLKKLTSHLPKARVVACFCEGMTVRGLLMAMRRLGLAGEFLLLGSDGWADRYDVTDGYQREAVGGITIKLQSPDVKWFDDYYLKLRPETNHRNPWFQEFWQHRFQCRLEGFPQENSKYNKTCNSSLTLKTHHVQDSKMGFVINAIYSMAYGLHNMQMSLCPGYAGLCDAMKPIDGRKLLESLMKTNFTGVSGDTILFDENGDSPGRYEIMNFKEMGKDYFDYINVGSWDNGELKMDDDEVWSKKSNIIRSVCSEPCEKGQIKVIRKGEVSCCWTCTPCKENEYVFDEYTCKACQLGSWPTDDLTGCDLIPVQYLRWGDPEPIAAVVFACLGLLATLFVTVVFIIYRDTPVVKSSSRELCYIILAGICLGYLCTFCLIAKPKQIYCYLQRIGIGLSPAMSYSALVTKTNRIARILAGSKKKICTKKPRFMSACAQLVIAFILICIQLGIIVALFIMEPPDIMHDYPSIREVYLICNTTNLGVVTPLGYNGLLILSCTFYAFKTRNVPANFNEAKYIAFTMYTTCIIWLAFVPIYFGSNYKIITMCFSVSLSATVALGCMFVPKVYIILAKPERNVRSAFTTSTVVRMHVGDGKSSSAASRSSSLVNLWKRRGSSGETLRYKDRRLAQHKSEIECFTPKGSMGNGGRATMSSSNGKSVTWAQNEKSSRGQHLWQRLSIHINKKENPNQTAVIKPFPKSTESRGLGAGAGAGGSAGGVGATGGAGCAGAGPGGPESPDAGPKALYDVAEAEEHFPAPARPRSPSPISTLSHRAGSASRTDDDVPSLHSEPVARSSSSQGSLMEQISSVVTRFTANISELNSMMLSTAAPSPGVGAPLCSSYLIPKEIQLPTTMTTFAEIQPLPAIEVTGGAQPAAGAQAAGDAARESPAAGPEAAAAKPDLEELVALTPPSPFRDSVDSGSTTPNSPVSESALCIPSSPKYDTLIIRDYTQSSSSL
Procedure, shortened: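 Fluo-4-loaded CHO-K1 cells pre-incubated 2 min with test substance, then stimulated with L-glutamic acid (final 10 μM) in HBSS, pH 7.4. FLIPR Ca2+ fluorescence normalized to glutamate alone (100%) and glutamate with 10 μM MPEP (0%); IC50 estimated by logistic fit.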

[3] = read-out: Percent inhibition of pain-related behavior score (%)
[4] = read-out: Percent inhibition of the frequency of urination (%)

Compound | inhibition in vivo at 1 mg/kg (male Slc:ICR mice [1]; 5% formalin) [%] | inhibition in vivo at 1 mg/kg (male Slc:ICR mice [2]; [3]) [%] | inhibition in vivo at 1 mg/kg (male Slc:ICR mice [2]; [4]) [%] | IC50 (human mGluR5) [nM] | inhibition in vivo at 1 mg/kg (male Slc:ICR mice [1]; 1% formalin) [%] | inhibition in vivo at 3 mg/kg (male Slc:ICR mice [2]; [3]) [%] | inhibition in vivo at 3 mg/kg (male Slc:ICR mice [2]; [4]) [%]
N#Cc1ccc(-c2cc(OCc3ccc(F)cn3)nc3c2CCC3)cn1 [Example 9, 5-{2-[(5-Fluoropyridin-2-yl)methoxy]-6,7-dihydro-5H-cyclopenta[b]pyridin-4-yl}pyridine-2-carbonitrile] | 39.1 | 23.9 | 36.3 | – | – | – | –
Fc1cccnc1COc1cc(-c2cncnc2)c2c(n1)CCC2 [Example 26, 2-[(3-Fluoropyridin-2-yl)methoxy]-4-(pyrimidin-5-yl)-6,7-dihydro-5H-cyclopenta[b]pyridine] | – | – | – | 73.6 | 71.9 | 60.5 | 57.3
N#Cc1ncc(-c2cc(OCc3ccccn3)nc3c2CCCC3)cn1 [Example 173, 5-[2-(Pyridin-2-ylmethoxy)-5,6,7,8-tetrahydroquinolin-4-yl]pyrimidine-2-carbonitrile hydrochloride] | 65.4 | – | – | 161 | – | 63.3 | 52.6
Cc1ncc(-c2cc(OCc3ncccc3F)nc3c2CCCC3)cn1 [Example 187, 2-[(3-Fluoropyridin-2-yl)methoxy]-4-(2-methylpyrimidin-5-yl)-5,6,7,8-tetrahydroquinoline] | 59.4 | 22.9 | 51.6 | 36 | – | – | –
N#Cc1nccnc1-c1cc(OCc2ccccn2)nc2c1CCCC2 [Example 198, 3-[2-(Pyridin-2-ylmethoxy)-5,6,7,8-tetrahydroquinolin-4-yl]pyrazine-2-carbonitrile hydrochloride] | – | – | – | 56.3 | 24.7 | 40.4 | 37.6
Cc1cncc(-c2cc(OCc3ncccc3F)nc3c2CCCC3)n1 [Example 214, 2-[(3-Fluoropyridin-2-yl)methoxy]-4-(6-methylpyrazin-2-yl)-5,6,7,8-tetrahydroquinoline] | 55.3 | – | – | 131 | – | 44.2 | 25.3
OCc1cncc(-c2cc(OCc3ccc(F)cn3)nc3c2CCCC3)n1 [Example 216, (6-{2-[(5-Fluoropyridin-2-yl)methoxy]-5,6,7,8-tetrahydroquinolin-4-yl}pyrazin-2-yl)methanol] | 41.2 | – | – | – | – | 28.2 | 30.1
[O-][n+]1cncc(-c2cc(OCc3ccccn3)nc3c2CCCC3)c1 [Example 231, 4-(1-Oxidopyrimidin-5-yl)-2-(pyridin-2-ylmethoxy)-5,6,7,8-tetrahydroquinoline] | 66.1 | – | – | 304 | – | – | –
c1ccc(COc2cc(-c3cncnc3)c3c(n2)CCCCC3)nc1 [Example 233, 2-(Pyridin-2-ylmethoxy)-4-(pyrimidin-5-yl)-6,7,8,9-tetrahydro-5H-cyclohepta[b]pyridine hydrochloride] | – | – | – | 10.9 | 59.5 | – | –
CC1CCc2c(-c3cncnc3)cc(OCc3ccccn3)nc21 (stereo not shown) [Example 238, 7-Methyl-2-(pyridin-2-ylmethoxy)-4-(pyrimidin-5-yl)-6,7-dihydro-5H-cyclopenta[b]pyridine] | 77.9 | – | – | 23 | – | – | –
N#Cc1ccc(-c2cc(OCc3ncc(F)cc3F)nc3c2CCC3)cn1 [Example 246, 5-{2-[(3,5-Difluoropyridin-2-yl)methoxy]-6,7-dihydro-5H-cyclopenta[b]pyridin-4-yl}pyridine-2-carbonitrile] | 22.8 | – | – | 42 | – | – | –
Fc1ccc(COc2cc(-c3cncnc3)c3c(n2)CCC3)cc1 [Example 257, 2-[(4-Fluorobenzyl)oxy]-4-(pyrimidin-5-yl)-6,7-dihydro-5H-cyclopenta[b]pyridine] | 51.1 | – | – | 63.5 | – | – | –
Cc1ncc(-c2cc(OCc3ccc(F)cc3)nc3c2CCC3)cn1 [Example 260, 2-[(4-Fluorobenzyl)oxy]-4-(2-methylpyrimidin-5-yl)-6,7-dihydro-5H-cyclopenta[b]pyridine] | 42.9 | – | – | 79 | – | – | –
Fc1cccnc1COc1cc(-c2cccnn2)c2c(n1)CCC2 [Example 272, 2-[(3-Fluoropyridin-2-yl)methoxy]-4-(pyridazin-3-yl)-6,7-dihydro-5H-cyclopenta[b]pyridine] | 40.5 | – | – | 117 | – | – | –
Fc1cnc(COc2cc(-c3cncnc3)c3c(n2)CCCC3)c(F)c1 [Example 277, 2-[(3,5-Difluoropyridin-2-yl)methoxy]-4-(pyrimidin-5-yl)-5,6,7,8-tetrahydroquinoline] | 60.9 | – | – | – | – | 40.4 | 24.8
